Assay results as given in patent publication US8192962B2, “Processes for detecting toxic substances” (Daikin Industries, Ltd., priority 2001, dated 2012).

System: Energy system protein genes
Assay: DNA chip mRNA expression in yeast, energy system protein genes (Table 4)
Assay type: cell-based, Saccharomyces cerevisiae S288C
Description: Yeast (Saccharomyces cerevisiae S288C (α SUC2mal mel gap2 CUP1)) were incubated at 25° C. on YPD medium (yeast extract 1%, polypepton 2%, glucose 2%). One of toxic chemical substances was added to the cells at logarithmic growth phase, and the cells were further incubated for two hours. Cells were cultured without any chemical substance in the same condition, and were used as control. Concentrations of the chemical substances were defined to inhibit the growth of the yeast but not lead to death.
After completion of the incubation, the culture was centrifuged to collect the cells. To the cells, sodium acetate buffer (50 mM sodium acetate, 10 mM EDTA, 1% SDS) was added, and the mixture was shaken at 65° C. for five minutes, followed by returning to room temperature, and obtaining the supernatant, of which the procedures were repeated two times. To the supernatant, ½ amount of a solution of phenol/chloroform was added, and the mixture was centrifuged to give a supernatant, which was added with an equal amount of chloroform, and the mixture was centrifuged to give a supernatant. To the supernatant, an equal amount of isopropanol containing 0.3 M sodium acetate was added, and the mixture was allowed to stand at room temperature for 30 minutes, after which the mixture was centrifuged to give a sediment of the whole RNAs. Seventy % ethanol was added to the sediment, and the mixture was again centrifuged to give a sediment, which was then dried and dissolved in water. mRNA was isolated from the whole RNAs as followings. In view of the fact that a poly A chain is attached to the 3′ terminus of mRNA, a polynucleotide having a poly T structure which was immobilized on the surface of latex beads was used to trap the mRNA, and then the mRNA was washed and eluted with spine column (Oligotex-dT30<Super>mRNA Purification Kit, Takara). Reverse transcription of the mRNA was conducted with a reverse transcriptase (Super Script II Reverse Transcriptase; catalogue No. 18064-014, GibcoBRL) using fluorescence-labeled nucleotides to give cDNAs that were introduced with Cy3-dUTP or Cy5-dUTP during the reverse transcription.
The labeled cDNAs were dissolved in TE buffer (10mM Tris-HCl/1 mM EDTA, pH8.0), and the solution was dropped on the DNA chip containing the whole genes of yeast (DNA Chip Research Inc. Japan) so that the cDNAs were hybridized on the DNA chip at 65° C. for over 12 hours. The fluoresces intensity of the DNA chip was read with a scanner, and the ratio relative to the fluorescence intensity resulting from the absence of chemical substance was estimated as the following, which is shown in Tables 1 to 9: […]

## Cl[C@H]1[C@H](Cl)[C@@H](Cl)[C@@H](Cl)[C@H](Cl)[C@H]1Cl [(7), γ-hexachlorocyclohexane]
Yeast gene YJR009C
  The level of expressed mRNA in the presence of chemical substance/The level of expressed mRNA in the absence of chemical substance: 1.6
Yeast gene YJR048W
  The level of expressed mRNA in the presence of chemical substance/The level of expressed mRNA in the absence of chemical substance: 0.3
Yeast gene YJR121W, cells incubated two hours with the chemical substance
  The level of expressed mRNA in the presence of chemical substance/The level of expressed mRNA in the absence of chemical substance: 1.0
Yeast gene YJR155W
  The level of expressed mRNA in the presence of chemical substance/The level of expressed mRNA in the absence of chemical substance: 1.7
Yeast gene YKL016C, cells incubated two hours with the chemical substance
  The level of expressed mRNA in the presence of chemical substance/The level of expressed mRNA in the absence of chemical substance: 1.5
Yeast gene YKL060C, cells incubated two hours with the chemical substance
  The level of expressed mRNA in the presence of chemical substance/The level of expressed mRNA in the absence of chemical substance: 1.2
Yeast gene YKL141W, cells incubated two hours with the chemical substance
  The level of expressed mRNA in the presence of chemical substance/The level of expressed mRNA in the absence of chemical substance: 0.5
Yeast gene YKL148C, cells incubated two hours with the chemical substance
  The level of expressed mRNA in the presence of chemical substance/The level of expressed mRNA in the absence of chemical substance: 0.6
Yeast gene YKR009C, cells incubated two hours with the chemical substance
  The level of expressed mRNA in the presence of chemical substance/The level of expressed mRNA in the absence of chemical substance: 1.0
Yeast gene YKR058W, cells incubated two hours with the chemical substance, 25° C., YPD medium
  The level of expressed mRNA in the presence of chemical substance/The level of expressed mRNA in the absence of chemical substance: 1.4
Yeast gene YKR097W
  The level of expressed mRNA in the presence of chemical substance/The level of expressed mRNA in the absence of chemical substance: 3.7
Yeast gene YLL041C, cells incubated two hours with the chemical substance
  The level of expressed mRNA in the presence of chemical substance/The level of expressed mRNA in the absence of chemical substance: 0.3
Yeast gene YLR038C, cells incubated two hours with the chemical substance
  The level of expressed mRNA in the presence of chemical substance/The level of expressed mRNA in the absence of chemical substance: 1.0
Yeast gene YLR044C, cells incubated two hours with the chemical substance
  The level of expressed mRNA in the presence of chemical substance/The level of expressed mRNA in the absence of chemical substance: 1.3
Yeast gene YLR134W, cells incubated two hours with the chemical substance
  The level of expressed mRNA in the presence of chemical substance/The level of expressed mRNA in the absence of chemical substance: 1.1
Yeast gene YLR258W, cells incubated two hours with the chemical substance
  The level of expressed mRNA in the presence of chemical substance/The level of expressed mRNA in the absence of chemical substance: 1.8
Yeast gene YLR284C, cells incubated two hours with the chemical substance
  The level of expressed mRNA in the presence of chemical substance/The level of expressed mRNA in the absence of chemical substance: 0.8
Yeast gene YLR295C, cells incubated two hours with the chemical substance, 25° C., YPD medium
  The level of expressed mRNA in the presence of chemical substance/The level of expressed mRNA in the absence of chemical substance: 1.1
Yeast gene YLR304C, cells incubated two hours with the chemical substance
  The level of expressed mRNA in the presence of chemical substance/The level of expressed mRNA in the absence of chemical substance: 0.6
Yeast gene YLR345W
  The level of expressed mRNA in the presence of chemical substance/The level of expressed mRNA in the absence of chemical substance: 1.2
Yeast gene YLR354C, cells incubated two hours with the chemical substance
  The level of expressed mRNA in the presence of chemical substance/The level of expressed mRNA in the absence of chemical substance: 1.1
Yeast gene YLR377C, cells incubated two hours with the chemical substance
  The level of expressed mRNA in the presence of chemical substance/The level of expressed mRNA in the absence of chemical substance: 0.9
Yeast gene YML087C
  The level of expressed mRNA in the presence of chemical substance/The level of expressed mRNA in the absence of chemical substance: 1.1
Yeast gene YML120C, cells incubated two hours with the chemical substance
  The level of expressed mRNA in the presence of chemical substance/The level of expressed mRNA in the absence of chemical substance: 0.8
Yeast gene YML129C, cells incubated two hours with the chemical substance
  The level of expressed mRNA in the presence of chemical substance/The level of expressed mRNA in the absence of chemical substance: 1.8
Yeast gene YMR073C, cells incubated two hours with the chemical substance
  The level of expressed mRNA in the presence of chemical substance/The level of expressed mRNA in the absence of chemical substance: 1.0
Yeast gene YMR118C
  The level of expressed mRNA in the presence of chemical substance/The level of expressed mRNA in the absence of chemical substance: 1.0
Yeast gene YMR205C, cells incubated two hours with the chemical substance
  The level of expressed mRNA in the presence of chemical substance/The level of expressed mRNA in the absence of chemical substance: 0.9
Yeast gene YMR261C, cells incubated two hours with the chemical substance
  The level of expressed mRNA in the presence of chemical substance/The level of expressed mRNA in the absence of chemical substance: 1.3
Yeast gene YMR267W, cells incubated two hours with the chemical substance, 25° C., YPD medium
  The level of expressed mRNA in the presence of chemical substance/The level of expressed mRNA in the absence of chemical substance: 1.2
Yeast gene YMR323W, cells incubated two hours with the chemical substance
  The level of expressed mRNA in the presence of chemical substance/The level of expressed mRNA in the absence of chemical substance: 1.1
Yeast gene YNL071W
  The level of expressed mRNA in the presence of chemical substance/The level of expressed mRNA in the absence of chemical substance: 1.4
Yeast gene YNL202W, cells incubated two hours with the chemical substance
  The level of expressed mRNA in the presence of chemical substance/The level of expressed mRNA in the absence of chemical substance: 0.9
Yeast gene YNL241C
  The level of expressed mRNA in the presence of chemical substance/The level of expressed mRNA in the absence of chemical substance: 3.2
Yeast gene YNL331C
  The level of expressed mRNA in the presence of chemical substance/The level of expressed mRNA in the absence of chemical substance: 1.9
Yeast gene YOL086C, cells incubated two hours with the chemical substance
  The level of expressed mRNA in the presence of chemical substance/The level of expressed mRNA in the absence of chemical substance: 1.9
Yeast gene YOL165C
  The level of expressed mRNA in the presence of chemical substance/The level of expressed mRNA in the absence of chemical substance: 1.4
Yeast gene YOR142W, cells incubated two hours with the chemical substance
  The level of expressed mRNA in the presence of chemical substance/The level of expressed mRNA in the absence of chemical substance: 1.0
Yeast gene YOR178C, cells incubated two hours with the chemical substance
  The level of expressed mRNA in the presence of chemical substance/The level of expressed mRNA in the absence of chemical substance: 0.9
Yeast gene YOR388C, cells incubated two hours with the chemical substance
  The level of expressed mRNA in the presence of chemical substance/The level of expressed mRNA in the absence of chemical substance: 1.0
Yeast gene YPL031C, cells incubated two hours with the chemical substance
  The level of expressed mRNA in the presence of chemical substance/The level of expressed mRNA in the absence of chemical substance: 1.6
Yeast gene YPL061W, cells incubated two hours with the chemical substance
  The level of expressed mRNA in the presence of chemical substance/The level of expressed mRNA in the absence of chemical substance: 0.5
Yeast gene YPL088W
  The level of expressed mRNA in the presence of chemical substance/The level of expressed mRNA in the absence of chemical substance: 3.7
Yeast gene YPL171C
  The level of expressed mRNA in the presence of chemical substance/The level of expressed mRNA in the absence of chemical substance: 1.7
Yeast gene YPL240C
  The level of expressed mRNA in the presence of chemical substance/The level of expressed mRNA in the absence of chemical substance: 1.4
Yeast gene YPL262W, cells incubated two hours with the chemical substance
  The level of expressed mRNA in the presence of chemical substance/The level of expressed mRNA in the absence of chemical substance: 1.3
Yeast gene YPL275W, cells incubated two hours with the chemical substance
  The level of expressed mRNA in the presence of chemical substance/The level of expressed mRNA in the absence of chemical substance: 1.1
Yeast gene YPL276W, cells incubated two hours with the chemical substance
  The level of expressed mRNA in the presence of chemical substance/The level of expressed mRNA in the absence of chemical substance: 1.2
Yeast gene YPR048W, cells incubated two hours with the chemical substance
  The level of expressed mRNA in the presence of chemical substance/The level of expressed mRNA in the absence of chemical substance: 0.9
Yeast gene YPR184W, cells incubated two hours with the chemical substance
  The level of expressed mRNA in the presence of chemical substance/The level of expressed mRNA in the absence of chemical substance: 1.3
